Like-named read-outs stand apart in the source and are kept apart here.
Legend:
[1] = molecular target: T1, GABAA receptor (rat α1β2 γ2) (Rattus norvegicus, UniProt P18508+P62813+P63138); assay: cell-based
T1 construct: expressed in transfected cells
Experimental: Doubly transfected cell lines were generated that express GABAA receptor (rat α1β2 γ2) together with a yellow fluorescent protein (YFP) Topaz-based halide sensor (46/148/152 mutant).
Doubly transfected cells were plated onto black-walled, clear-bottomed, poly-D-lysine-coated 384-well plates (Becton Dickinson Biosciences). Prior to the assay, the cell medium was removed and replaced with chloride-free plating medium (CFPM; see the composition below). After the incubation in CFPM for 3-4 hours at 37° C. in a 5% CO2 atmosphere, the medium was removed and replaced with chloride-free assay buffer (CFAB; see the composition below ), containing the final concentrations of test compounds. The cells were incubated for 15-20 minutes in the dark (to preserve fluorescence of the YFP) at room temperature (RT). Once the incubation was complete, the cell plates were transferred to the FLIPR (Molecular Devices Inc., Sunnyvale, Calif.) for the assay.
YFP was excited with 488 nm wavelength light and the fluorescence measured using a 540/60 nm bandpass emission filter. FLIPR settings were routinely adjusted so that the background fluorescence reading at the beginning of the assay was 20,000-50,000 counts/ms. After measuring a baseline readout of 10 seconds, the stimulus buffer was added to the well and signal was recorded for 2-4 more minutes. The stimulus buffer comprised CFAB, except that the sodium gluconate component was replaced with sodium iodide. Note that the addition of the iodide causes quenching of the fluorescent signal. In the majority of the experiments, the final concentration of sodium iodide in the stimulus buffer was about 5 mM.
The fluorescence response was corrected for the background fluorescence, as well as for the fluorescence changes, caused by iodide only. […] The initial analysis and data export was done using FLIPR-384 software (Version 1.25).
Microsoft Excel® was used to plot concentration-response curves and determine an EC50 value. […]

[2] = molecular target: α1-containing isoforms of the GABA(A) receptor; conditions: read-out: EC50 for diazepam, published electrophysiological recordings; α1-containing isoforms in various expression systems; cited from earlier work
[3] = test system: hippocampal granule cells; conditions: read-out: EC50 for diazepam; cited from earlier work
[4] = test system: neuronal-like cell line NT-2 N; conditions: read-out: EC50 for diazepam; cited from earlier work

T1 sequence (P62813 28-455): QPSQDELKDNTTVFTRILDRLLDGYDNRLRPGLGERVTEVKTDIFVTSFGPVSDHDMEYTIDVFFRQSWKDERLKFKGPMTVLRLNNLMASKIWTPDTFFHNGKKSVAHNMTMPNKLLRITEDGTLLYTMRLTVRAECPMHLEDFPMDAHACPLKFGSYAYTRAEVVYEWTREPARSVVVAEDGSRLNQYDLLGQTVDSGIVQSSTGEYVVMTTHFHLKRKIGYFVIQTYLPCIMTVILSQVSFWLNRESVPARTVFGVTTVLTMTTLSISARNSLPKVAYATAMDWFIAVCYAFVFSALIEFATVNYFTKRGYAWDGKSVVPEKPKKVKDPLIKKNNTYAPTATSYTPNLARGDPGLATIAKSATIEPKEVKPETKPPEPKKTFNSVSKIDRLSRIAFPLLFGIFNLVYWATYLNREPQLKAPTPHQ
T1 sequence (P63138 25-474 limits assumed): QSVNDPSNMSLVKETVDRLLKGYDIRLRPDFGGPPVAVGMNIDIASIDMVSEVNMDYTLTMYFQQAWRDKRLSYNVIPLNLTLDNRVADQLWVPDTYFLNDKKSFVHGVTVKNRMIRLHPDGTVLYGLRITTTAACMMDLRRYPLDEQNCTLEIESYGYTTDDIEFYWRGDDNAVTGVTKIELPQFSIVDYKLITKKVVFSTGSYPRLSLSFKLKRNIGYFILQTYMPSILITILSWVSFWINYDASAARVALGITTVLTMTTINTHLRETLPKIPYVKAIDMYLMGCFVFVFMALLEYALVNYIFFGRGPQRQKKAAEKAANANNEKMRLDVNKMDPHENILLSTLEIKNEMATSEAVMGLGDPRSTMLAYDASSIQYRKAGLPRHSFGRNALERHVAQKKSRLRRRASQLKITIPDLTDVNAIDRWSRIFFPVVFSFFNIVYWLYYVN
T1 sequence (P18508 39-466): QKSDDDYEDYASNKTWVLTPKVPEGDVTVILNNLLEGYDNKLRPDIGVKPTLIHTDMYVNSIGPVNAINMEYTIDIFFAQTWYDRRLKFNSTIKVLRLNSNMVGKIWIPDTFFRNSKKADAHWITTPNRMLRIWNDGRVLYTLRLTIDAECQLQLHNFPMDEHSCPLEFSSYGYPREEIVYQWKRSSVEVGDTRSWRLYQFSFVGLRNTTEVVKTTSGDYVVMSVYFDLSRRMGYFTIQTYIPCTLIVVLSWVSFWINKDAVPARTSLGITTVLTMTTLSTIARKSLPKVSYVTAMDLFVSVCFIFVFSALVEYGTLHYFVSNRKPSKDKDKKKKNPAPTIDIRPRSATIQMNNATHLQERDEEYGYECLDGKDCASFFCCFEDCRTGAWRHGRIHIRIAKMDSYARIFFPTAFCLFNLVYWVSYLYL

SMILES: CC(=O)[C@H]1CC[C@H]2[C@@H]3CC[C@H]4C[C@H](O)CC[C@]4(C)[C@H]3CC[C@]12C [allopregnanolone]
- Effect on GABA-induced fluorescent signal ([1]; against constant GABA 0.25 μM): concentration-dependent increase

SMILES: CN1CCc2cc3c(cc2[C@H]1[C@@H]1OC(=O)c2c1ccc1c2OCO1)OCO3 [bicuculline]
- IC50 [1]: 4700 ± 900 nM

SMILES: CN1C(=O)CN=C(c2ccccc2)c2cc(Cl)ccc21 [diazepam]
- EC50 [2]: 53 to 70 nM
- EC50 [3]: 122 nM
- Effect on GABA-induced fluorescent signal [1]: concentration-dependent increase
- EC50 [4]: 74 nM

— patent US20060257934A1 (priority 2005, published 2006)
